Measurements from ChEMBL document CHEMBL1131874, “Synthesis and apoptogenic activity of fluorinated ceramide and dihydroceramide analogues” (1999).

Legend:
Homo sapiens = species: Homo sapiens; experiment: Apoptogenic activity against peripheral blood lymphocytes after 24 hr treatment at concentration 30 uM; type: functional
[1] = Apoptogenic activity against K-422 cells after 24 hr treatment at concentration 30 uM; type: functional, cell-based; conditions: Homo sapiens
[2] = Apoptogenic activity against Molt cells after 24 hr treatment at concentration 30 uM; type: functional, cell-based; conditions: Homo sapiens
[3] = Aoptogenic activity against Molt cells after 24 hr treatment at concentration 30 uM; type: functional, cell-based; conditions: Homo sapiens

Work on `CCCCCCCCCCCCC/C=C/[C@@H](O)[C@H](CO)NC(C)=O` yielded a Cells (Homo sapiens) of 48.8%, a Cells [1] of 27.7% and a Cells [2] of 51%.
With `CCCCCCCCC[C@H](O)[C@H](CO)NC(=O)CCCCC` the Cells (Homo sapiens) was 57%, the Cells [1] was 15% and the Cells [2] was 9%.
For `CCCCCCC/C=C/[C@@H](O)[C@H](CO)NC(=O)CCCCC`, the Cells (Homo sapiens) was 12%, the Cells [1] was 12.7% and the Cells [2] was 3.5%.
With `CCCCCCCCC[C@H](F)[C@H](CO)NC(C)=O` the Cells (Homo sapiens) was 3%, the Cells [3] was 3% and the Cells [1] was 7.3%.
Work on `CCCCCCC/C=C/[C@@H](F)[C@H](CO)NC(=O)CCCCC` yielded a Cells (Homo sapiens) of 40%, a Cells [1] of 34.7% and a Cells [2] of 11%.
`CCCCCCC/C=C/[C@H](F)[C@H](CO)NC(=O)CCCCC` gave a Cells (Homo sapiens) of 47.7%, a Cells [1] of 51.2% and a Cells [2] of 13.7%.
`CCCCCC(=O)N[C@@H](CO)[C@@H](F)CCc1ccccc1` showed a Cells (Homo sapiens) of 0.5%, a Cells [1] of 2.5% and a Cells [2] of 2%.
`CCCCCCC/C=C/[C@H](O)[C@H](CO)NC(=O)CCCCC` showed a Cells (Homo sapiens) of 33.5%, a Cells [1] of 32.7% and a Cells [2] of 1%.
In the case of `CCCCCCCCC[C@H](F)[C@H](CO)NC(=O)CCCCC`, the Cells (Homo sapiens) is reported as 46%, the Cells [1] is reported as 32% and the Cells [2] is reported as 31.6%.
